Source: ChEMBL document CHEMBL1275398, “Side chain cyclization based on serine residues: synthesis, structure, and activity of a novel cyclic analogue of the parathyroid hormone fragment 1-11” (J Med Chem, 2010)
*1 amine or outer side, *2 acyl side, *3 side chain or, on linkers, in order; H or OH if unused. Where a SMILES comes first, the peptide text is derived from it. Bridges are numbered along the chain shown (N, C = ends). [ ]: non-standard residue; d: D form. Adipoyl = O=C(CCCCC(=O)[*:2])[*:1]; hArg = N=C(N)NCCCC[C@H](N)C(=O)O; Nle = CCCC[C@H](N)C(=O)O; Aib = CC(C)(N)C(=O)O

Legend:
[1] = biological target: T1, Parathyroid hormone/parathyroid hormone-related peptide receptor (Homo sapiens, UniProt Q03431); assay: Agonist activity at recombinant PTHR1 expressed in HEK293 cells co-transfected with CRE-Luc assessed as increase of adenylyl cyclase activity after 4.5 hrs by luciferase assay; assay type: functional, cell-based
T1 sequence (Q03431 whole entry): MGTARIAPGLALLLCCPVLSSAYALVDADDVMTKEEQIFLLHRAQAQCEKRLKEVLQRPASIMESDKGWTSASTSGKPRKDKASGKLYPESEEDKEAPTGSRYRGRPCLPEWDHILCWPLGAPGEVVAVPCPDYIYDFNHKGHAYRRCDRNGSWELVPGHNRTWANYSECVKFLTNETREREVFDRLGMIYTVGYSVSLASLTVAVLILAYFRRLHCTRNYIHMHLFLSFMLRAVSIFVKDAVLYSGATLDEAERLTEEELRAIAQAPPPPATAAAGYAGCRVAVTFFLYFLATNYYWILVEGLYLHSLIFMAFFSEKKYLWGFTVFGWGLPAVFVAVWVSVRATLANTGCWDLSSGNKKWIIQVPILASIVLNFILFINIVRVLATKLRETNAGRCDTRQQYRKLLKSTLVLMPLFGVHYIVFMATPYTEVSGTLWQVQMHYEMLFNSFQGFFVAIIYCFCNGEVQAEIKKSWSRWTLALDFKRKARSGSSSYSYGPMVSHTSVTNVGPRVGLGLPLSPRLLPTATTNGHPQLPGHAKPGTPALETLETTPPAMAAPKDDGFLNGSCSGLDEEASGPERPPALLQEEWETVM

[2] = biological target: T2, Parathyroid hormone/parathyroid hormone-related peptide receptor (Homo sapiens) (UniProt Q03431); assay: Agonist activity at recombinant PTHR1 expressed in HEK293 cells co-transfected with CRE-Luc assessed as maximal increase of adenylyl cyclase activity after 4.5 hrs by luciferase assay relative to control; assay type: functional, cell-based
T2 sequence (whole entry): T1 sequence (Q03431 whole entry)

Compound	EC50 [1] [nM]	Activity [2] [%]
CCCC[C@@H]1NC(=O)[C@H](CC(C)C)NC(=O)[C@@H](NC(=O)[C@@H](NC(=O)[C@H](CCC(=O)O)NC(=O)C(C)(C)NC(=O)[C@@H](NC(=O)C(C)(C)N)C(C)C)[C@@H](C)CC)CCCCNC(=O)CC[C@@H](C(=O)N[C@@H](CCCCNC(=N)N)C(N)=O)NC(=O)[C@H](Cc2cnc[nH]2)NC1=O (H-[Aib]V[Aib]EIKL[Nle]HE[hArg]-NH2; lactam 6-10)		98
CCCC[C@H](NC(=O)[C@H](CC(C)C)NC(=O)[C@H](CCC(N)=O)NC(=O)[C@@H](NC(=O)[C@H](CCC(=O)O)NC(=O)C(C)(C)NC(=O)[C@@H](NC(=O)C(C)(C)N)C(C)C)[C@@H](C)CC)C(=O)N[C@@H](Cc1cnc[nH]1)C(=O)N[C@@H](CCC(N)=O)C(=O)N[C@@H](CCCCN=C(N)N)C(N)=O (H-[Aib]V[Aib]EIQL[Nle]HQ[hArg]-NH2)	2.4	
CCCC[C@H](NC(=O)[C@H](CC(C)C)NC(=O)[C@H](CCC(N)=O)NC(=O)[C@@H](NC(=O)[C@H](CCC(=O)O)NC(=O)C(C)(C)NC(=O)[C@@H](NC(=O)C(C)(C)N)C(C)C)[C@@H](C)CC)C(=O)N[C@@H](Cc1cnc[nH]1)C(=O)N[C@@H](CCC(N)=O)C(=O)N[C@@H](CCCCNC(=N)N)C(N)=O (H-[Aib]V[Aib]EIQL[Nle]HQ[hArg]-NH2)		90

Other lines, results leading:

EC50 [1] [nM]	Activity [2] [%]	Compound
1120		CCCC[C@@H]1NC(=O)[C@H](CC(C)C)NC(=O)[C@@H](NC(=O)[C@@H](NC(=O)[C@H](CCC(=O)O)NC(=O)C(C)(C)NC(=O)[C@@H](NC(=O)C(C)(C)N)C(C)C)[C@@H](C)CC)CCCCNC(=O)CC[C@@H](C(=O)N[C@@H](CCCCN=C(N)N)C(N)=O)NC(=O)[C@H](Cc2cnc[nH]2)NC1=O (H-[Aib]V[Aib]EIKL[Nle]HE[hArg]-NH2; lactam 6-10)
0.2		CCCC[C@@H]1NC(=O)[C@H](CC(C)C)NC(=O)[C@@H](NC(=O)[C@@H](NC(=O)[C@H](CCC(=O)O)NC(=O)C(C)(C)NC(=O)[C@@H](NC(=O)C(C)(C)N)C(C)C)[C@@H](C)CC)COC(=O)CCCCC(=O)OC[C@@H](C(=O)N[C@@H](CCCCN=C(N)N)C(N)=O)NC(=O)[C@H](Cc2cnc[nH]2)NC1=O (H-[Aib]V[Aib]EISL[Nle]HS[hArg]-NH2; linker 6-10 via Adipoyl)
	159	CCCC[C@@H]1NC(=O)[C@H](CC(C)C)NC(=O)[C@@H](NC(=O)[C@@H](NC(=O)[C@H](CCC(=O)O)NC(=O)C(C)(C)NC(=O)[C@@H](NC(=O)C(C)(C)N)C(C)C)[C@@H](C)CC)COC(=O)CCCCC(=O)OC[C@@H](C(=O)N[C@@H](CCCCNC(=N)N)C(N)=O)NC(=O)[C@H](Cc2cnc[nH]2)NC1=O (H-[Aib]V[Aib]EISL[Nle]HS[hArg]-NH2; linker 6-10 via Adipoyl)
